Experimental findings from ChEMBL document CHEMBL1221384, “Synthesis and antimicrobial activity of novel fluorine containing 4-(substituted-2-hydroxybenzoyl)-1H-pyrazoles and pyrazolyl benzo[d]oxazoles” (2010) are described below.

Common to all, as to format: functional
One experiment deals with Escherichia coli. Kind of experiment: Antimicrobial activity against Escherichia coli MTCC 443 by broth microdilution technique.
A further experiment relates to Pseudomonas aeruginosa. Kind of experiment: Antimicrobial activity against Pseudomonas aeruginosa MTCC 1688 by broth microdilution technique. Background: Dilution methods test growth across graded concentrations, often in twofold steps.
A further experiment concerns Staphylococcus aureus. Kind of experiment: Antimicrobial activity against Staphylococcus aureus MTCC 96 by broth microdilution technique.
A further experiment relates to Bacillus subtilis. Kind of experiment: Antimicrobial activity against Bacillus subtilis MTCC 441 by broth microdilution technique.
Another experiment concerns Candida albicans. Kind of experiment: Antimicrobial activity against Candida albicans MTCC 227 by broth serial dilution technique.

Converted amounts (≈) assume the structure as drawn. Where only a bound is given, the exact number is not on record here.

With `Cc1cc(C)c(O)c(C(=O)c2cnn(-c3ccc(F)c(F)c3)c2)c1`, the MIC50 in the experiment on Escherichia coli amounted to 500 µg/mL (≈ 1520 µM); in the experiment with Pseudomonas aeruginosa, 250 µg/mL (≈ 761 µM); with Staphylococcus aureus, 500 µg/mL (≈ 1520 µM); with Bacillus subtilis it was 500 µg/mL (≈ 1520 µM); against Candida albicans, 1000 µg/mL (≈ 3050 µM).

Take `Cc1ccc2nc(-c3cnn(-c4ccc(F)c(F)c4)c3)oc2c1`: the MIC50 in the experiment on Escherichia coli is 200 µg/mL (≈ 642 µM); against Pseudomonas aeruginosa, 500 µg/mL (≈ 1610 µM); with Staphylococcus aureus it was 200 µg/mL (≈ 642 µM); in the experiment on Bacillus subtilis, 25 µg/mL (≈ 80.3 µM); against Candida albicans, 500 µg/mL (≈ 1610 µM).

Take `Fc1ccc2oc(-c3cnn(-c4ccc(F)c(F)c4)c3)nc2c1`: the MIC50 against Escherichia coli was determined as 250 µg/mL (≈ 793 µM); against Pseudomonas aeruginosa, 50 µg/mL (≈ 159 µM); against Staphylococcus aureus, 500 µg/mL (≈ 1590 µM); against Bacillus subtilis, 200 µg/mL (≈ 634 µM); in the experiment on Candida albicans, 250 µg/mL (≈ 793 µM).

GENTAMICIN: the MIC50 with Escherichia coli amounted to 0.05 µg/mL; against Pseudomonas aeruginosa it was 1 µg/mL; in the experiment with Staphylococcus aureus it was 0.25 µg/mL; in the experiment on Bacillus subtilis it was 1 µg/mL.

`CCn1cc(C(=O)O)c(=O)c2cc(F)c(N3CCNCC3)cc21` [NORFLOXACIN]: the MIC50 worked out at 10 µg/mL (≈ 31.3 µM) in the experiment with Escherichia coli, 10 µg/mL (≈ 31.3 µM) in the experiment on Pseudomonas aeruginosa, 10 µg/mL (≈ 31.3 µM) with Staphylococcus aureus and 100 µg/mL (≈ 313 µM) against Bacillus subtilis.

In the case of `O/N=C(/c1cnn(-c2ccc(F)c(F)c2)c1)c1cc(F)ccc1O`, the MIC50 with Escherichia coli is 500 µg/mL (≈ 1500 µM); in the experiment with Pseudomonas aeruginosa, 500 µg/mL (≈ 1500 µM); against Staphylococcus aureus, 500 µg/mL (≈ 1500 µM); with Bacillus subtilis, 250 µg/mL (≈ 750 µM); against Candida albicans it was 1000 µg/mL (≈ 3000 µM).

Consider `Cc1ccc(/C(=N\O)c2cnn(-c3ccc(F)c(F)c3)c2)c(O)c1`, for which the MIC50 in the experiment with Escherichia coli was found to be 25 µg/mL (≈ 75.9 µM); against Pseudomonas aeruginosa it was 50 µg/mL (≈ 152 µM); against Staphylococcus aureus, 250 µg/mL (≈ 759 µM); against Bacillus subtilis, 500 µg/mL (≈ 1520 µM); in the experiment on Candida albicans, 500 µg/mL (≈ 1520 µM).

For `O=C(c1cnn(-c2ccc(F)c(F)c2)c1)c1cc(F)cc(Cl)c1O`, the MIC50 with Escherichia coli worked out at 500 µg/mL (≈ 1420 µM); in the experiment with Pseudomonas aeruginosa it was 500 µg/mL (≈ 1420 µM); in the experiment with Staphylococcus aureus it was 1000 µg/mL (≈ 2840 µM); in the experiment with Bacillus subtilis it was 500 µg/mL (≈ 1420 µM); against Candida albicans, 250 µg/mL (≈ 709 µM).

Take `O/N=C(/c1cnn(-c2ccc(F)c(F)c2)c1)c1cc(Br)ccc1O`: the MIC50 was 200 µg/mL (≈ 507 µM) with Escherichia coli; 100 µg/mL (≈ 254 µM) in the experiment with Pseudomonas aeruginosa; 500 µg/mL (≈ 1270 µM) in the experiment with Staphylococcus aureus; 1000 µg/mL (≈ 2540 µM) against Bacillus subtilis; 500 µg/mL (≈ 1270 µM) with Candida albicans.

Turning to `Cc1ccc2oc(-c3cnn(-c4ccc(F)c(F)c4)c3)nc2c1`, the MIC50 in the experiment with Escherichia coli is 500 µg/mL (≈ 1610 µM); in the experiment on Pseudomonas aeruginosa, 62.5 µg/mL (≈ 201 µM); with Staphylococcus aureus, 50 µg/mL (≈ 161 µM); against Bacillus subtilis it was 200 µg/mL (≈ 642 µM); in the experiment on Candida albicans it was 500 µg/mL (≈ 1610 µM).

For `O/N=C(/c1cnn(-c2ccc(F)c(F)c2)c1)c1ccccc1O`, the MIC50 against Escherichia coli was 500 µg/mL (≈ 1590 µM); against Pseudomonas aeruginosa, 500 µg/mL (≈ 1590 µM); against Staphylococcus aureus, greater than 1000 µg/mL; against Bacillus subtilis, greater than 1000 µg/mL; in the experiment with Candida albicans, 1000 µg/mL (≈ 3170 µM).

Turning to `Fc1ccc(-n2cc(-c3nc4cc(Cl)ccc4o3)cn2)cc1F`, the MIC50 is 100 µg/mL (≈ 301 µM) against Escherichia coli; 125 µg/mL (≈ 377 µM) in the experiment with Pseudomonas aeruginosa; 125 µg/mL (≈ 377 µM) in the experiment with Staphylococcus aureus; 200 µg/mL (≈ 603 µM) against Bacillus subtilis; 500 µg/mL (≈ 1510 µM) against Candida albicans.

Take `Cc1ccc(O)c(C(=O)c2cnn(-c3ccc(F)c(F)c3)c2)c1`: the MIC50 with Escherichia coli stood at 500 µg/mL (≈ 1590 µM); in the experiment on Pseudomonas aeruginosa it was 250 µg/mL (≈ 795 µM); in the experiment on Staphylococcus aureus, 500 µg/mL (≈ 1590 µM); in the experiment with Bacillus subtilis, 500 µg/mL (≈ 1590 µM); in the experiment with Candida albicans it was 1000 µg/mL (≈ 3180 µM).

As to `O=C(c1cnn(-c2ccc(F)c(F)c2)c1)c1cc(F)ccc1O`, the MIC50 turned out to be 62.5 µg/mL (≈ 196 µM) in the experiment on Escherichia coli; 50 µg/mL (≈ 157 µM) with Pseudomonas aeruginosa; 100 µg/mL (≈ 314 µM) in the experiment on Staphylococcus aureus; 62.5 µg/mL (≈ 196 µM) against Bacillus subtilis; 500 µg/mL (≈ 1570 µM) in the experiment with Candida albicans.

As for `Fc1ccc(-n2cc(-c3nc4cc(Br)ccc4o3)cn2)cc1F`, the MIC50 in the experiment on Escherichia coli amounted to 250 µg/mL (≈ 665 µM); in the experiment with Pseudomonas aeruginosa it was 250 µg/mL (≈ 665 µM); with Staphylococcus aureus, 250 µg/mL (≈ 665 µM); against Bacillus subtilis, 250 µg/mL (≈ 665 µM); against Candida albicans, 500 µg/mL (≈ 1330 µM).

For the compound `O=C(c1cnn(-c2ccc(F)c(F)c2)c1)c1cc(Cl)ccc1O`, the MIC50 in the experiment on Escherichia coli is 250 µg/mL (≈ 747 µM); against Pseudomonas aeruginosa, 500 µg/mL (≈ 1490 µM); in the experiment on Staphylococcus aureus, 1000 µg/mL (≈ 2990 µM); against Bacillus subtilis it was 500 µg/mL (≈ 1490 µM); with Candida albicans, 500 µg/mL (≈ 1490 µM).

As to `CC1(C)S[C@@H]2[C@H](NC(=O)[C@H](N)c3ccccc3)C(=O)N2[C@H]1C(=O)O` [AMPICILLIN], the MIC50 amounted to 100 µg/mL (≈ 286 µM) in the experiment with Escherichia coli, 100 µg/mL (≈ 286 µM) against Pseudomonas aeruginosa, 250 µg/mL (≈ 715 µM) against Staphylococcus aureus and 250 µg/mL (≈ 715 µM) against Bacillus subtilis.

For the compound `COC1=CC(=O)C[C@@H](C)[C@]12Oc1c(Cl)c(OC)cc(OC)c1C2=O` [GRISEOFULVIN], the MIC50 with Candida albicans came out at 500 µg/mL (≈ 1420 µM).

For the compound `O=C(c1cnn(-c2ccc(F)c(F)c2)c1)c1cc(Br)ccc1O`, the MIC50 is 500 µg/mL (≈ 1320 µM) against Escherichia coli; 500 µg/mL (≈ 1320 µM) with Pseudomonas aeruginosa; 125 µg/mL (≈ 330 µM) against Staphylococcus aureus; 100 µg/mL (≈ 264 µM) against Bacillus subtilis; greater than 1000 µg/mL in the experiment on Candida albicans.

As to `Cc1ccc(C(=O)c2cnn(-c3ccc(F)c(F)c3)c2)c(O)c1`, the MIC50 in the experiment with Escherichia coli was 125 µg/mL (≈ 398 µM); in the experiment with Pseudomonas aeruginosa, 62.5 µg/mL (≈ 199 µM); in the experiment on Staphylococcus aureus, 200 µg/mL (≈ 636 µM); in the experiment with Bacillus subtilis, 100 µg/mL (≈ 318 µM); against Candida albicans it was 500 µg/mL (≈ 1590 µM).

As for `Fc1ccc(-n2cc(-c3nc4ccccc4o3)cn2)cc1F`, the MIC50 in the experiment with Escherichia coli is 125 µg/mL (≈ 421 µM); in the experiment with Pseudomonas aeruginosa, 100 µg/mL (≈ 336 µM); with Staphylococcus aureus, 125 µg/mL (≈ 421 µM); in the experiment with Bacillus subtilis it was 200 µg/mL (≈ 673 µM); in the experiment on Candida albicans, 1000 µg/mL (≈ 3360 µM).

In the case of `O/N=C(/c1cnn(-c2ccc(F)c(F)c2)c1)c1cc(Cl)ccc1O`, the MIC50 stood at 12.5 µg/mL (≈ 35.7 µM) in the experiment with Escherichia coli; 125 µg/mL (≈ 357 µM) against Pseudomonas aeruginosa; 100 µg/mL (≈ 286 µM) with Staphylococcus aureus; 62.5 µg/mL (≈ 179 µM) in the experiment on Bacillus subtilis; 1000 µg/mL (≈ 2860 µM) with Candida albicans.

For the compound `O=C(c1cnn(-c2ccc(F)c(F)c2)c1)c1ccccc1O`, the MIC50 is 250 µg/mL (≈ 833 µM) against Escherichia coli; 555 µg/mL (≈ 1850 µM) against Pseudomonas aeruginosa; 500 µg/mL (≈ 1670 µM) with Staphylococcus aureus; 12.5 µg/mL (≈ 41.6 µM) with Bacillus subtilis; 100 µg/mL (≈ 333 µM) against Candida albicans.

For the compound `O=C(N[C@H](CO)[C@H](O)c1ccc([N+](=O)[O-])cc1)C(Cl)Cl` [CHLORAMPHENICOL], the MIC50 in the experiment on Escherichia coli, in the experiment on Pseudomonas aeruginosa, against Staphylococcus aureus and against Bacillus subtilis was 50 µg/mL (≈ 155 µM) in each case.

NYSTATIN returned an MIC50 in the experiment on Candida albicans of 100 µg/mL.

Regarding `O=C(O)c1cn(C2CC2)c2cc(N3CCNCC3)c(F)cc2c1=O` [CIPROFLOXACIN], the MIC50 amounted to 25 µg/mL (≈ 75.4 µM) against Escherichia coli, 25 µg/mL (≈ 75.4 µM) against Pseudomonas aeruginosa, 50 µg/mL (≈ 151 µM) in the experiment on Staphylococcus aureus and 50 µg/mL (≈ 151 µM) in the experiment with Bacillus subtilis.

In general, MIC50 refers to an inhibitory concentration at the 50% level, which refers to growth in some studies and to a panel of isolates in others. Higher therefore signals weaker potency.
